# Test results as given in ChEMBL document CHEMBL2380283, “Design and synthesis of thiophene dihydroisoquinolines as novel BACE1 inhibitors” (Bioorg Med Chem Lett, 2013).
# How the values were obtained:
# Beta-secretase 1 [1] = molecular target: T1, Beta-secretase 1 (Homo sapiens, UniProt P56817); test: Inhibition of BACE1 (unknown origin) by Alpha screen assay
# Beta-secretase 1 [2] = molecular target: T1, Beta-secretase 1; test: Inhibition of recombinant BACE1 (unknown origin) expressed in Escherichia coli using biotinylated APP swidesh mutant as substrate incubated for 20 mins prior to substrate addition measured after 3 hrs by fluorescence polarization assay
# Cathepsin D = Cathepsin D (Homo sapiens, UniProt P07339); test: Inhibition of cathepsin-D (unknown origin) after 110 mins by fluorescence polarization assay
# Cathepsin D, sequence (P07339 65-162 limits assumed): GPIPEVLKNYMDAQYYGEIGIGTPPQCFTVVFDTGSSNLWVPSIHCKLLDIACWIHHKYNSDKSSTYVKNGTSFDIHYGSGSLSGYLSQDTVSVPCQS
# Cathepsin D, sequence (P07339 169-412 limits assumed): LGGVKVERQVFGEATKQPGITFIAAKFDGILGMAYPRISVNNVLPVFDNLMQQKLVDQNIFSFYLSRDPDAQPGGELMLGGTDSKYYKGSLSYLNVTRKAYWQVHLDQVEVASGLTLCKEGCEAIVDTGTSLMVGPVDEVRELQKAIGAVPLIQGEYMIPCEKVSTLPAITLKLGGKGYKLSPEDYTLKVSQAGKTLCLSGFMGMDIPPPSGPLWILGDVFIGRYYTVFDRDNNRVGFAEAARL
# [3] = Apparent permeability across apical to basolateral side in MDCK cells expressing MDR1 at 5 uM after 120 mins by LC/MS/MS analysis; assay type: ADME, cell-based, Canis lupus familiaris; settings: dog
# T1 sequence (P56817 whole entry): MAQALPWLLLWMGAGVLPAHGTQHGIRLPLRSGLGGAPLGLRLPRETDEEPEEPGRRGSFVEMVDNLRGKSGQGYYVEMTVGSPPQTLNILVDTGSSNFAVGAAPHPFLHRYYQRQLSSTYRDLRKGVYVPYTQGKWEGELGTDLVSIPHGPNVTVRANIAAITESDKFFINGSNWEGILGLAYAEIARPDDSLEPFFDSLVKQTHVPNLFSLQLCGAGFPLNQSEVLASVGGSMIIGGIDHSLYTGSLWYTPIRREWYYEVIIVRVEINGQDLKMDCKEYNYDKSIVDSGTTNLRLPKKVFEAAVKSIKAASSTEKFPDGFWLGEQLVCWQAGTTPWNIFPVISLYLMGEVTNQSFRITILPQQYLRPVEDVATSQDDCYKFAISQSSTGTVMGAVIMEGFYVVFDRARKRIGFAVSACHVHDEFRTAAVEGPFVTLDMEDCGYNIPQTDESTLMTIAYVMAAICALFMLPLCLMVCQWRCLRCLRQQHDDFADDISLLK
SMILES,IC50 (Beta-secretase 1 [1]),further results
CC1(C)Cc2cc(Cl)ccc2C(N[C@H](Cc2ccccc2)C(=O)O)=N1,264000 nM,
CC1(C)Cc2cc(Cl)ccc2C(NC(Cc2ccsc2)C(=O)O)=N1 (stereo not drawn),2900 nM,
CC1(C)Cc2cc(Cl)ccc2C(NC(Cc2cscc2Br)C(=O)O)=N1 (stereo not drawn),310 nM,
CC1(C)Cc2cc(Cl)ccc2C(NC(Cc2ccsc2Br)C(=O)O)=N1 (stereo not drawn),9500 nM,
CC1(C)Cc2cc(Cl)ccc2C(NC(Cc2sccc2Br)C(=O)O)=N1 (stereo not drawn),710 nM,
CC1(C)Cc2cc(Cl)ccc2C(NC(Cc2cscc2-c2ccncc2)C(=O)O)=N1 (stereo not drawn),1850 nM,
CC1(C)Cc2cc(Cl)ccc2C(NC(Cc2cscc2-c2ncco2)C(=O)O)=N1 (stereo not drawn),820 nM,
CC1(C)Cc2cc(Cl)ccc2C(NC(Cc2cscc2-c2cc[nH]n2)C(=O)O)=N1 (stereo not drawn),1260 nM,
CC1(C)Cc2cc(Cl)ccc2C(NC(Cc2cscc2-c2cn[nH]c2)C(=O)O)=N1 (stereo not drawn),450 nM,
Cn1cc(-c2cscc2CC(NC2=NC(C)(C)Cc3cc(Cl)ccc32)C(=O)O)cn1 (stereo not drawn),1090 nM,
CCc1cscc1CC(NC1=NC(C)(C)Cc2cc(Cl)ccc21)C(=O)O (stereo not drawn),630 nM,
CCCc1cscc1CC(NC1=NC(C)(C)Cc2cc(Cl)ccc21)C(=O)O (stereo not drawn),610 nM,
CC1(C)Cc2cc(Cl)ccc2C(NC(Cc2cscc2CCC2CC2)C(=O)O)=N1 (stereo not drawn),570 nM,
CC1(C)Cc2cc(Cl)ccc2C(NC(Cc2cscc2C2CC2)C(=O)O)=N1 (stereo not drawn),2430 nM,
C#Cc1cscc1CC(NC1=NC(C)(C)Cc2cc(Cl)ccc21)C(=O)O (stereo not drawn),760 nM,
CC#Cc1cscc1CC(NC1=NC(C)(C)Cc2cc(Cl)ccc21)C(=O)O (stereo not drawn),510 nM,
CCCc1scc(-c2cn[nH]c2)c1CC(NC1=NC(C)(C)Cc2cc(Cl)ccc21)C(=O)O (stereo not drawn),8 nM,IC50 (Beta-secretase 1 [2]): 400 nM; IC50 (Cathepsin D): > 30000 nM
CCCc1scc(-c2cn[nH]c2)c1CC(NC1=NC(C)(C)Cc2cc(Cl)ccc21)c1nccc(=O)[nH]1 (stereo not drawn),406 nM,"IC50 (Beta-secretase 1 [2]): 40000 nM; Papp A→B at 2 h, 5 µM [3]: 10 ×10⁻⁶ cm/s; IC50 (Cathepsin D): > 30000 nM"
